In US12180139B2, “Method for preparing aminoalkanoic acid derivative containing biphenyl group” (AMTIXBIO CO., LTD., priority 2019, dated 2024):
In brackets after ≈: the same amount, converted by molar mass.

How the values were obtained:
[1] = tested on: B. cereus (+); assay: Antibacterial MIC test (CLSI); format: cell-based; conditions: for MIC B. cereus (+): MHB liquid medium, 37° C., 24 hours
Protocol: (§1) The MIC test was conducted in accordance CLSI guidelines. […] As a positive control, Nofloxacin and Vancomycin were used.

[2] = tested on: B. coagulans (+); assay: Antibacterial MIC test (CLSI); format: cell-based; conditions: for MIC B. coagulans (+): MHB liquid medium, 37° C., 24 hours
Protocol: as §1

[3] = tested on: B. subtilis (+); assay: Antibacterial MIC test (CLSI); format: cell-based; conditions: for MIC B. subtilis (+): MHB liquid medium, 37° C., 24 hours
Protocol: as §1

[4] = tested on: E. coli (−); assay: Antibacterial MIC test (CLSI); format: cell-based; conditions: for MIC E. coli (−): MHB liquid medium, 37° C., 24 hours
Protocol: as §1

[5] = tested on: L. monocytogenes (+); assay: Antibacterial MIC test (CLSI); format: cell-based; conditions: for MIC L. monocytogenes (+): MHB liquid medium, 37° C., 24 hours
Protocol: as §1

[6] = tested on: M. luteus (+); assay: Antibacterial MIC test (CLSI); format: cell-based; conditions: for MIC M. luteus (+): MHB liquid medium, 37° C., 24 hours
Protocol: as §1

[7] = tested on: P. acnes (+); assay: Antibacterial MIC test (CLSI); format: cell-based; conditions: for MIC P. acnes (+): MHB liquid medium, 37° C., 24 hours
Protocol: as §1

[8] = tested on: S. aureus enterica (−); assay: Antibacterial MIC test (CLSI); format: cell-based; conditions: for MIC S. aureus enterica (−): MHB liquid medium, 37° C., 24 hours
Protocol: as §1

[9] = tested on: S. aureus (+); conditions: MHB liquid medium, 37° C., 24 hours
Protocol: (§2) The antibacterial activities against Gram-positive bacteria, Gram-negative bacteria or multi-drug resistant bacteria were evaluated for the compounds of the present invention. The MIC test was conducted in accordance CLSI guidelines. E. coli(−), P. aeruginosa(−), and S. enterica(−) were used as Gram-negative bacteria, B. cereus(+), B. subtilis(+), B. coagulans(+), L. monocytogenes(+), M. luteus(+), P. acnes(+), S. epidermidis(+), and S. aureus(+) were used as Gram-positive bacteria. Methicillin-resistant Staphylococcus aureus (MRSA) was used as multi-drug resistant bacteria. The bacterial cells were incubated until the OD600 of the single colonies reached 0.1. […] Subsequently, bacterial cells were incubated at 37° C. for 24 hours, and then the MICs (μg/ ? ) were determined by visual reading and optical density detection at 600 nm (OD600). As a positive control, Nofloxacin and Vancomycin were used.

[10] = tested on: S. epidermidis (+); conditions: MHB liquid medium, 37° C., 24 hours
Protocol: as §2

[11] = tested on: MRSA; assay: Antibacterial MIC test (CLSI); format: cell-based, Methicillin-resistant Staphylococcus aureus; conditions: for MIC MRSA: MHB liquid medium, 37° C., 24 hours
Protocol: as §1

[12] = tested on: C. neoformans; conditions: RPMI1640 broth, 35° C., 72 hours, visual reading; expressed as a range value
[13] = tested on: C. albicans; conditions: RPMI1640 broth, 35° C., 48 hours, visual reading; expressed as a range value
Protocol: (§3) An in vitro antifungal susceptibility test was performed in accordance with the US Clinical and Laboratory Standards Institute (CLSI) guidelines to measure the degree of antifungal activity of the compounds synthesized in the Preparation Examples against opportunistic pathogenic fungi. […] The MIC value (μg/ ? ) is expressed as a range value. Specifically, Candida species and Cryptococcus neoformans were incubated in a Sabouraud dextrose agar (SDA) (Sigma-Aldrich) solid medium for 24 and 48 hours, respectively to obtain single colonies. The obtained single colonies were suspended in 0.85% physiological saline to prepare fungal cell suspension (1 to 5×10^6 cells/ ? ). Fungal cells 2000-fold diluted in RPMI1640 broth (Sigma-Aldrich) were seeded on 96-well plates (5×10^2 to 2.5×10^3 cells/ ? , 195 ? /well). Serial two-fold dilutions (128, 64, 32, 16, 8, 4, 2, 1, and 0.5 μg/ ? ) of compounds were prepared by diluting the compounds synthesized according to the above preparation examples. Then, 5 ? from each dilution was added to the well of the 96-well plate containing fungal cell suspension to give a final suspension of 200 ? per well. […] As a positive control, amphotericin B (AMB), which is highly toxic to the human body but is known as a representative antifungal agent, was used.

[14] = tested on: C. glabrata; conditions: RPMI1640 broth, 35° C., 48 hours, visual reading; expressed as a range value
Protocol: as §3

[15] = tested on: A. fumigatus; conditions: visual reading; expressed as a range value

Structure (SMILES)	MIC B. cereus (+) [1] [mg/L]	MIC B. coagulans (+) [2] [mg/L]	MIC B. subtilis (+) [3] [mg/L]	MIC E. coli (−) [4] [mg/L]	MIC L. monocytogenes (+) [5] [mg/L]	MIC M. luteus (+) [6] [mg/L]	MIC P. acnes (+) [7] [mg/L]	MIC S. aureus enterica (−) [8] [mg/L]	MIC S. aureus (+) [9] [mg/L]	MIC S. epidermidis (+) [10] [mg/L]	MIC MRSA [11] [mg/L]	MIC (μg/mL) C. neoformans [12]	MIC (μg/mL) C. albicans [13]	MIC (μg/mL) C. glabrata [14]	MIC (μg/mL) A. fumigatus [15]	further results
CCC(N)C(=O)Nc1ccc(-c2ccc(Cl)c(Cl)c2)cc1.Cl (racemic) [Compound 29, (R)/(S)-2-amino-N-(3′,4′-dichloro-[1,1′-biphenyl]-4-yl)butanamide hydrochloride]	8	<4	<4	8	<4	<4	<4	8	<4	<4	<4	2~8 μg/mL	4~16 μg/mL	4~16 μg/mL	4~16 μg/mL	
CCCC(N)C(=O)Nc1ccc(-c2ccc(Cl)c(Cl)c2)cc1.Cl (racemic) [Compound 30, (R)/(S)-2-amino-N-(3′,4′-dichloro-[1,1′-biphenyl]-4-yl)pentanamide hydrochloride]	32	8	16	>32	16		16	>32	16	16	16	2~8 μg/mL	4~16 μg/mL	4~16 μg/mL	4~16 μg/mL	
CCCCC(N)C(=O)Nc1ccc(-c2ccc(Cl)c(Cl)c2)cc1.Cl (racemic) [Compound 31, (R)/(S)-2-amino-N-(3′,4′-dichloro-[1,1′-biphenyl]-4-yl)hexanamide hydrochloride]	<4	<4	<4	<4	<4	<4	<4	8	<4	<4	<4	0.5~4 μg/mL	0.5~4 μg/mL	0.5~4 μg/mL	0.5~4 μg/mL	
CCC(NC)C(=O)Nc1ccc(-c2ccc(Cl)c(Cl)c2)cc1.Cl (racemic) [Compound 33, (R)/(S)-N-(3′,4′-dichloro-[1,1′-biphenyl]-4-yl)-2-(methylamino)butanamide hydrochloride]	16	<4	8	8	<4	<4	<4	16	8	<4	<4	4~16 μg/mL	8~32 μg/mL	8~32 μg/mL	8~32 μg/mL	
CCCCC(N)C(=O)NCCc1ccc(-c2ccc(Cl)c(Cl)c2)cc1.Cl (racemic) [Compound 75, (R)/(S)-2-amino-N-(2-(3′,4′-dichloro-[1,1′-biphenyl]-4-yl)ethyl)hexanamide hydrochloride]	16		8	32	8	8	8	>32	8	8	8	0.5~4 μg/mL	0.5~4 μg/mL	0.5~4 μg/mL	0.5~4 μg/mL	
CCCC(NC)C(=O)NCCc1ccc(-c2ccc(OC(F)(F)F)cc2)cc1.Cl (racemic) [Compound 90, (R)/(S)-2-(methylamino)-N-(2-(4′-(trifluoromethoxy)-[1,1′-biphenyl]-4-yl)ethyl)pentanamide hydrochloride]												4~16 μg/mL	4~16 μg/mL	4~16 μg/mL	4~16 μg/mL	
CCCC(C(=O)NCCc1ccc(-c2ccc(Cl)c(Cl)c2)cc1)N(C)C (racemic) [Compound 92, (R)/(S)-N-(2-(3′,4′-dichloro-[1,1′-biphenyl]-4-yl)ethyl)-2-(dimethylamino)pentanamide]												4~16 μg/mL	8~32 μg/mL	8~32 μg/mL	8~32 μg/mL	
C[C@@H]1[C@H](O)[C@@H](C)/C=C/C=C/C=C/C=C/C=C/C=C/C=C/[C@H](O[C@@H]2O[C@H](C)[C@@H](O)[C@H](N)[C@@H]2O)C[C@@H]2O[C@](O)(C[C@@H](O)C[C@@H](O)[C@H](O)CC[C@@H](O)C[C@@H](O)CC(=O)O[C@H]1C)C[C@H](O)[C@H]2C(=O)O [ABM, amphotericin B, reference compound]												0.25 µg/mL (≈ 0.271 µM)	0.25 µg/mL (≈ 0.271 µM)	0.5 µg/mL (≈ 0.541 µM)	1 µg/mL (≈ 1.08 µM)	
CCn1cc(C(=O)O)c(=O)c2cc(F)c(N3CCNCC3)cc21 [Nofloxacin, reference compound]	1 (≈ 3.13 µM)	<0.125	<0.125	<0.125	<0.125	<0.125	<0.125	<0.125			0.5 (≈ 1.57 µM)					
CN[C@H](CC(C)C)C(=O)N[C@H]1C(=O)N[C@@H](CC(N)=O)C(=O)N[C@H]2C(=O)N[C@H]3C(=O)N[C@H](C(=O)N[C@H](C(=O)O)c4cc(O)cc(O)c4-c4cc3ccc4O)[C@H](O)c3ccc(c(Cl)c3)Oc3cc2cc(c3O[C@@H]2O[C@H](CO)[C@@H](O)[C@H](O)[C@H]2O[C@H]2C[C@](C)(N)[C@H](O)[C@H](C)O2)Oc2ccc(cc2Cl)[C@H]1O [Vancomycin, reference compound]																MIC ([1]; Bacillus cereus, 24 h, read-out: MIC B. cereus (+)): 0.5 mg/L (≈ 0.345 µM); MIC ([2]; Heyndrickxia coagulans, 24 h, read-out: MIC B. coagulans (+)): 0.25 mg/L (≈ 0.173 µM); MIC ([3]; Bacillus subtilis, 24 h, read-out: MIC B. subtilis (+)): 0.25 mg/L (≈ 0.173 µM); MIC ([4]; Escherichia coli, 24 h, read-out: MIC E. coli (−)): 64 mg/L (≈ 44.2 µM); MIC ([5]; Listeria monocytogenes, 24 h, read-out: MIC L. monocytogenes (+)): 0.25 mg/L (≈ 0.173 µM); MIC ([6]; Micrococcus luteus, 24 h, read-out: MIC M. luteus (+)): 0.25 mg/L (≈ 0.173 µM); MIC ([7]; Cutibacterium acnes, 24 h, read-out: MIC P. acnes (+)): < 0.125 mg/L; MIC ([8]; Staphylococcus aureus, 24 h, read-out: MIC S. aureus enterica (−)): > 64 mg/L; MIC ([11]; Staphylococcus aureus, MRSA, 24 h, read-out: MIC MRSA): 1 mg/L (≈ 0.69 µM)
